# Data: patent US20050196795A1, “Methods for diagnosing and treating bladder cancer” (priority 2004, published 2005)
# How the values were obtained:
# [1] = system: HT-1376 cells; assay: Cytokine protein array analysis of secreted cytokines; assay type: cell-based, human
# Method: MIF plays a key role in pro-inflammatory gene and cytokine expression. Therefore changes in MIF expression or protein content are likely to affect the expression of additional cytokines. This may in fact be a key in the utility of MIF inhibition in treating bladder adenocarcinoma. To test this, cytokine expression changes induced by MIF inhibition were also evaluated by cytokine protein array analysis (Ray Biotech, Norcross, Ga.), which detected secreted cytokines. […] A summary of the cytokine secretion changes (2 fold or greater) seen with MIF inhibition is described in Table 1.
# HT-1376 cells express and secrete 65 of the 79 cytokines present on the array. The three types of MIF inhibition all affected the cytokine secretion patterns of these cells. In table 1, blank cells indicate no difference between the amounts of cytokine secreted by the treated and control cells. Arrows indicate an increase or decrease in the fold amount of cytokine secreted. […] Healon decreased the secreted amount of 27 cytokines.
# [2] = system: HT-1376 bladder epithelial cells; assay: MIF protein synthesis and secretion (cellular and secreted MIF); assay type: cell-based, human; conditions: HT-1376 cells, in vitro treatment
# Method: In order to establish the relevance of MIF to urogenital disease in humans we sought to determine if human bladder epithelial cells secrete MIF. Human bladder HT-1376 cells (ATCC, Manasas, Va.) were cultured for 48 hours and the culture medium was assayed for MIF using ELISA. In addition, intracellular content of MIF was assayed from cell lysates. These human bladder adenocarcinoma cells synthesize MIF ([…]). The average MIF concentration secreted into the medium by these cells was 15 ng/ml. Expression of MIF was confirmed by RT-PCR analysis. Thus establishing MIF secretion by human bladder epithelia.
# Next, we determined if addition of MIF inhibitors in the culture media changed the synthesis or release of MIF by these cells.
# A human MIF-specific “sandwich” ELISA technique was developed, based on the capture of MIF by immobilized monoclonal antibody (MAB289, R&D Systems) followed by detection with goat polyclonal anti-MIF affinity purified IgG (BAF289, R&D Systems). This assay was successfully used previously to detect MIF levels in serum and urine. This is another application of this protocol in which MIF levels are detected in urine for bladder cancer diagnosis and prognosis. Intravesical MIF inhibitors are a potential new treatment for bladder cancer. […]
# [3] = system: Human bladder HT-1376 cells; assay: Caspase-3 activity in cell lysates of 48 h cultures (apoptosis); assay type: cell-based; conditions: ANOVA, Newman-Keuls, p<0.05
# Method: The reduction in cell proliferation seen with MIF inhibitor treatment could possibly be due to induction of apoptosis. To assess this we determined caspase-3 activity within the cell lysates of 48 h cultures.
# [4] = fold vs control, ↓ decrease ↑ increase, Not detected = no longer detectable after treatment
substance,measurement,setting,value
hyaluronan [Healon],number of secreted cytokines whose amount was decreased,[1]; 65 of the 79 cytokines on the array expressed,27
same,Secreted Cytokines: Ang,[1]; [4],Not detected
same,Secreted Cytokines: Ckβ 8-1,[1]; [4],Not detected
same,Secreted Cytokines: Eotaxin,[1]; [4],Not detected
same,Secreted Cytokines: Eotaxin-3,[1]; [4],Not detected
same,Secreted Cytokines: IGF-1,[1]; [4],Not detected
same,Secreted Cytokines: IL-1β,[1]; [4],no affect
same,Secreted Cytokines: MIF,[1]; [4],Not detected
same,Secreted Cytokines: MIP-3α,[1]; [4],Not detected
same,Secreted Cytokines: TNF-α,[1]; [4],Not detected
same,decrease in secreted (extracellular) MIF,[2],2.8 fold
same,increase in cellular MIF content,[2],2 fold
same,caspase-3 activity,[3],no significant increase
